Counter-ions that a name gives are not always drawn.
Assays:
Format in all cases: biochemical
[1] = target: T1, human MMP14 catalytic domain (Homo sapiens, UniProt P50281); assay: Isolated enzyme assay MMP14 (fluorogenic substrate); conditions: IC50 (MMP14) divided by IC50 (MMP12)
T1 construct: Recombinant human MMP14 catalytic domain; made in house
Procedure: Recombinant human MMP14 catalytic domain may be expressed and purified as described by Parkar A. A. et al, (2000), Protein Expression and Purification, 20, 152. The purified enzyme can be used to monitor inhibitors of activity as follows: MMP14 (10 ng/ml final concentration) is incubated for 60 minutes at room temperature with the synthetic substrate Mca-Pro-Cha-Gly-Nva-His-Ala-Dpa-NH2 (10 μM) in assay buffer (0.1M “Tris-HCl” (trade mark) buffer, pH 7.5 containing 0.1M NaCl, 20 mM CaCl2, 0.020 mM ZnCl and 0.05% (w/v) “Brij 35” (trade mark) detergent) in the presence (5 concentrations) or absence of inhibitors. Activity is determined by measuring the fluorescence at λex 320 nm and λem 405 nm. Percent inhibition is calculated as follows: % Inhibition is equal to the [Fluorescenceplus inhibitor−Fluorescencebackground] divided by the [Fluorescenceminus inhibitor−Fluorescencebackground].

[2] = target: T2, human MMP19 catalytic domain (Homo sapiens, UniProt Q99542); assay: Isolated enzyme assay MMP19 (fluorogenic substrate); conditions: IC50 (MMP19) divided by IC50 (MMP12)
T2 construct: Recombinant human MMP19 catalytic domain; made in house
T2 sequence (Q99542 98-256 limits assumed): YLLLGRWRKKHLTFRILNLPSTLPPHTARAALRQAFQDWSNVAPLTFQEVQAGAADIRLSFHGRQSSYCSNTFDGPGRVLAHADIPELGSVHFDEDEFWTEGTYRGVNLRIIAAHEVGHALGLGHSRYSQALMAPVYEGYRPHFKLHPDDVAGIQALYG
Procedure: Recombinant human MMP19 catalytic domain may be expressed and purified as described by Parkar A. A. et al, (2000), Protein Expression and Purification, 20:152. The purified enzyme can be used to monitor inhibitors of activity as follows: MMP19 (40 ng/ml final concentration) is incubated for 120 minutes at 35° C. with the synthetic substrate Mca-Pro-Leu-Ala-Nva-Dpa-Ala-Arg-NH2 (5 μM) in assay buffer (0.1M “Tris-HCl” (trade mark) buffer, pH 7.3 containing 0.1M NaCl, 20 mM CaCl2, 0.020 mM ZnCl and 0.05% (w/v) “Brij 35” (trade mark) detergent) in the presence (5 concentrations) or absence of inhibitors. Activity is determined by measuring the fluorescence at λex 320 nm and λem 405 nm. Percent inhibition is calculated as follows: % Inhibition is equal to the [Fluorescenceplus inhibitor−Fluorescencebackground] divided by the [Fluorescenceminus inhibitor−Fluorescencebackground].

[3] = target: T3, human MMP12 catalytic domain (Homo sapiens, UniProt P39900); assay: Isolated enzyme assay MMP12 (fluorogenic substrate); conditions: recombinant human MMP12 catalytic domain, 60 minutes at room temperature; read-out: hMMP12 IC50
T3 construct: Recombinant human MMP12 catalytic domain; made in house
T3 sequence (P39900 106-263 limits assumed): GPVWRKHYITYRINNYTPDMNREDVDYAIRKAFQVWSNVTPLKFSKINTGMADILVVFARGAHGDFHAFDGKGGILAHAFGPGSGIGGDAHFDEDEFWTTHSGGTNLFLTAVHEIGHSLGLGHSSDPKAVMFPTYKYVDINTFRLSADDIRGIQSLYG
Procedure: Recombinant human MMP12 catalytic domain may be expressed and purified as described by Parkar A. A. et al, (2000), Protein Expression and Purification, 20, 152. The purified enzyme can be used to monitor inhibitors of activity as follows: MMP12 (50 ng/ml final concentration) is incubated for 60 minutes at room temperature with the synthetic substrate Mca-Pro-Cha-Gly-Nva-His-Ala-Dpa-NH2 (10 μM) in assay buffer (0.1M “Tris-HCl” (trade mark) buffer, pH 7.3 containing 0.1M NaCl, 20 mM CaCl2, 0.020 mM ZnCl and 0.05% (w/v) “Brij 35” (trade mark) detergent) in the presence (10 concentrations) or absence of inhibitors. Activity is determined by measuring the fluorescence at λex 320 nm and λem 405 nm. Percent inhibition is calculated as follows: % Inhibition is equal to the [Fluorescenceplus inhibitor−Fluorescencebackground] divided by the [Fluorescenceminus inhibitor−Fluorescencebackground].

hMMP8 = target: T4, hMMP8 (Homo sapiens, UniProt P22894); assay: Isolated enzyme assay MMP8 (fluorogenic substrate); conditions: IC50 (MMP8) divided by IC50 (MMP12)
T4 construct: purchased Calbiochem
T4 sequence (P22894 101-467): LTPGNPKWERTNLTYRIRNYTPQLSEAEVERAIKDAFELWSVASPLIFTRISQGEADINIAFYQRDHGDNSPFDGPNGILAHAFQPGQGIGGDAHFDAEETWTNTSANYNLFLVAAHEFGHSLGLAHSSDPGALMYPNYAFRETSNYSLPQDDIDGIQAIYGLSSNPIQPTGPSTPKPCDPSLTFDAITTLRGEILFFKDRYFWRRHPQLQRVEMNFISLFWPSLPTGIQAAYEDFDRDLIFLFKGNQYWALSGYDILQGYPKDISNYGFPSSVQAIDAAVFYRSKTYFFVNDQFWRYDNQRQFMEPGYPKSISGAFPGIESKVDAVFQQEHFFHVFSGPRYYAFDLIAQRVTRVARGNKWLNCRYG
Procedure: Purified pro-MMP8 is purchased from Calbiochem. The enzyme (at 10 μg/ml) is activated by p-amino-phenyl-mercuric acetate (APMA) at 1 mM for 2.5 h, 35° C. The activated enzyme can be used to monitor inhibitors of activity as follows: MMP8 (200 ng/ml final concentration) is incubated for 90 minutes at 35° C. (80% H2O) with the synthetic substrate Mca-Pro-Cha-Gly-Nva-His-Ala-Dpa-NH2 (12.5 μM) in assay buffer (0.1M “Tris-HCl” (trade mark) buffer, pH 7.5 containing 0.1M NaCl, 30 mM CaCl2, 0.040 mM ZnCl and 0.05% (w/v) “Brij 35” (trade mark) detergent) in the presence (10 concentrations) or absence of inhibitors. Activity is determined by measuring the fluorescence at λex 320 nm and λem 405 nm. Percent inhibition is calculated as follows: % Inhibition is equal to the [Fluorescenceplus inhibitor−Fluorescencebackground] divided by the [Fluorescenceminus inhibitor−Fluorescencebackground].

[4] = system: human MMP9 catalytic domain; assay: Isolated enzyme assay MMP9 (fluorogenic substrate); conditions: IC50 (MMP9) divided by IC50 (MMP12)
Procedure: Recombinant human MMP9 catalytic domain was expressed and then purified by Zn chelate column chromatography followed by hydroxamate affinity column chromatography. The enzyme can be used to monitor inhibitors of activity as follows: MMP9 (5 ng/ml final concentration) is incubated for 30 minutes at RT with the synthetic substrate Mca-Pro-Cha-Gly-Nva-His-Ala-Dpa-NH2 (5 μM) in assay buffer (0.1M “Tris-HCl” (trade mark) buffer, pH 7.3 containing 0.1M NaCl, 20 mM CaCl2, 0.020 mM ZnCl and 0.05% (w/v) “Brij 35” (trade mark) detergent) in the presence (10 concentrations) or absence of inhibitors. Activity is determined by measuring the fluorescence at λex 320 nm and λem 405 nm. Percent inhibition is calculated as follows: […]
% Inhibition is equal to the [Fluorescenceplus inhibitor−Fluorescencebackground] divided by the [Fluorescenceminus inhibitor−Fluorescencebackground].
A protocol for testing against other matrix metalloproteinases, including MMP9, using expressed and purified pro MMP is described, for instance, by C. Graham Knight et al., (1992) FEBS Lett., 296 (3), 263-266.

| SMILES | Selectivity for inhibition of hMMP12 over: hMMP14 [1] | Selectivity for inhibition of hMMP12 over: hMMP19 [2] | IC50 [3] [nM] | Selectivity for inhibition of hMMP12 over: hMMP8 (hMMP8) | Selectivity for inhibition of hMMP12 over: hMMP9 [4] |
| --- | --- | --- | --- | --- | --- |
| C[C@]1(CS(=O)(=O)NCc2ccc(Oc3ccccc3)cc2)NC(=O)NC1=O [reference compound] | >330 | >330 | 151 | 202 | 261 |
| CN(Cc1ccc(Oc2cncnc2)cc1)S(=O)(=O)C[C@@]1(C2CC2)NC(=O)NC1=O [Example 1, 1-[(4S)-4-Cyclopropyl-2,5-dioxoimidazolidin-4-yl]-N-methyl-N-{[4-(pyrimidin-5-yloxy)phenyl]methyl}methanesulfonamide trifluoroacetic acid salt] | >525 | >525 | 19 | 320 | >525 |
| CN(Cc1ccc(Oc2cnc(C3CC3)nc2)cc1)S(=O)(=O)C[C@@]1(C2CC2)NC(=O)NC1=O [Example 2, 1-[(4S)-4-Cyclopropyl-2,5-dioxoimidazolidin-4-yl]-N-({4-[(2-cyclopropylpyrimidin-5-yl)oxy]phenyl}methyl)-N-methylmethanesulfonamide] | >2320 | >2320 | 4.3 | 2120 | 1440 |

Continued by falling IC50 [3], values first:

| Selectivity for inhibition of hMMP12 over: hMMP14 [1] | Selectivity for inhibition of hMMP12 over: hMMP19 [2] | IC50 [3] [nM] | Selectivity for inhibition of hMMP12 over: hMMP8 (hMMP8) | Selectivity for inhibition of hMMP12 over: hMMP9 [4] | SMILES |
| --- | --- | --- | --- | --- | --- |
| – | – | 63.7 | 657 | 1530 | O=C1NC(=O)[C@](CS(=O)(=O)NCc2ccc(Oc3cnc(C(F)(F)F)nc3)cc2)(C2CC2)N1 [Example 6, 1-[(4S)-4-Cyclopropyl-2,5-dioxoimidazolidin-4-yl]-N-[(4-{[2-(trifluoromethyl)pyrimidin-5-yl]oxy}benzyl)]methane sulfonamide] |
| >588 | >588 | 17 | 417 | 523 | CCc1ncc(Oc2ccc(CN(C)S(=O)(=O)C[C@@]3(C4CC4)NC(=O)NC3=O)cc2)cn1 [Example 5, 1-[(4S)-4-Cyclopropyl-2,5-dioxoimidazolidin-4-yl]-N-({4-[(2-ethylpyrimidin-5-yl)oxy]phenyl}methyl)-N-methylmethanesulfonamide] |
| >7142 | >2800 | 14 | >628 | 857 | Cc1ncc(Oc2ccc(CN(C)S(=O)(=O)C[C@@]3(C4CC4)NC(=O)NC3=O)cc2)cn1 [Example 3, 1-[(4S)-4-Cyclopropyl-2,5-dioxoimidazolidin-4-yl]-N-methyl-N-({4-[(2-methylpyrimidin-5-yl)oxy]phenyl}methyl)methanesulfonamide] |
| >3560 | >2882 | 8.3 | >1168 | >795 | CN(Cc1ccc(Oc2cnc(C(F)(F)F)nc2)cc1)S(=O)(=O)C[C@@]1(C2CC2)NC(=O)NC1=O [Example 4, 1-[(4S)-4-Cyclopropyl-2,5-dioxoimidazolidin-4-yl]-N-methyl-N-[(4-{[2-(trifluoromethyl)pyrimidin-5-yl]oxy}phenyl)methyl]methanesulfonamide] |

Source: patent US8183251B2, “Hydantoin compounds and pharmaceutical compositions thereof” (AstraZeneca AB, priority 2006, dated 2012)
